Laboratory results taken from US8076487B2, “Pyridone derivative and herbicide” (Kumiai Chemical Industry Co., Ltd., priority 2006, dated 2011).

What was measured:
Type in all cases: in vivo
[1] = test system: barnyardgrass (Echinochloa crus-galli (L.) P. Beauv. var. crus-galli); assay: Test Example 2: herbicidal effect by soil application to upland field; conditions: soil surface spray, upland field soil, 1,000 g active ingredient per hectare, 21st day after application
Method in brief: (§1)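 Soil-applied wettable powder, 1,000 g a.i./ha, sprayed after sowing onto covered field soil. Effect rated on a standard scale 21 days later in a greenhouse.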

[2] = test system: green foxtail (Setaria viridis (L.) P. Beauv.); assay: as above; conditions: soil surface spray, upland field soil, 1,000 g active ingredient per hectare, 21st day after application
Method in brief: as §1

[3] = test system: slender amaranth (Amaranthus viridis L.); assay: as above; conditions: soil surface spray, upland field soil, 1,000 g active ingredient per hectare, 21st day after application
Method in brief: as §1

[4] = test system: velvetleaf (Abutilon theophrasti medicus); assay: as above; conditions: soil surface spray, upland field soil, 1,000 g active ingredient per hectare, 21st day after application
Method in brief: as §1

[5] = test system: Japanese bulrush (Scirpus juncoides Roxb.); assay: Test Example 1: herbicidal effect by soil application to paddy field; conditions: paddy field soil application; active ingredient 1,000 g per 1 hectare; wettable powder added dropwise to water surface the day after sowing; examined on the 21st day after application
Method in brief: (§2)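 Plants were sown in flooded (3 cm) paddy soil and evaluated for herbicidal effect 21 days after soil application in a greenhouse.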

[6] = test system: heartshape false pickerelweed (Monochoria vaginalis (Burm.f.) C.Presl); assay: as above; conditions: paddy field soil application; active ingredient 1,000 g per 1 hectare; wettable powder added dropwise to water surface the day after sowing; examined on the 21st day after application
Method in brief: as §2

[7] = test system: early watergrass (Echinochloa oryzicola Vasing); assay: as above; conditions: paddy field soil application; active ingredient 1,000 g per 1 hectare; wettable powder added dropwise to water surface the day after sowing; examined on the 21st day after application
Method in brief: as §2

[8] = test system: barnyardgrass (Echinochloa crus-galli (L.) P. Beauv. var. crus-galli); assay: Test Example 3: herbicidal effect by application to upland field (foliage treatment); conditions: 14th day after application; for herbicidal effect, Barnyardgrass: foliage treatment, 1,000 g active ingredient per 1 hectare, greenhouse; for herbicidal effect (index), Barnyardgrass: foliage treatment, plants grown two weeks, 1,000 g active ingredient per hectare
Method in brief: (§3)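 Field-soil pots sown with the four weed species and grown two weeks in a greenhouse, then sprayed over the whole plant with wettable powder in water at 1,000 g active ingredient/ha in 1,000 L/ha. Herbicidal effect scored against a rating standard 14 days after treatment.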

[9] = test system: green foxtail (Setaria viridis (L.) P. Beauv.); assay: as above; conditions: 14th day after application; for herbicidal effect, Green Foxtail: foliage treatment, 1,000 g active ingredient per 1 hectare, greenhouse; for herbicidal effect (index), Green Foxtail: foliage treatment, plants grown two weeks, 1,000 g active ingredient per hectare
Method in brief: as §3

[10] = test system: slender amaranth (Amaranthus viridis L.); assay: as above; conditions: 14th day after application; for herbicidal effect, Slender Amaranth: foliage treatment, 1,000 g active ingredient per 1 hectare, greenhouse; for herbicidal effect (index), Slender Amaranth: foliage treatment, plants grown two weeks, 1,000 g active ingredient per hectare
Method in brief: as §3

[11] = test system: velvetleaf (Abutilon theophrasti medicus); assay: as above; conditions: 14th day after application; for herbicidal effect, Velvetleaf: foliage treatment, 1,000 g active ingredient per 1 hectare, greenhouse; for herbicidal effect (index), Velvetleaf: foliage treatment, plants grown two weeks, 1,000 g active ingredient per hectare
Method in brief: as §3

SMILES | herbicidal effect (index), Barnyardgrass [1] | herbicidal effect (index), Green Foxtail [2] | herbicidal effect (index), Slender Amaranth [3] | herbicidal effect (index), Velvetleaf [4] | herbicidal effect, Scirpus juncoides Roxb. [5] | herbicidal effect, Monochoria vaginalis (Burm. f.) C. Presl [6] | herbicidal effect, Echinochloa oryzicola Vasing [7] | herbicidal effect, Barnyardgrass [8] | herbicidal effect, Green Foxtail [9] | herbicidal effect, Slender Amaranth [10] | herbicidal effect, Velvetleaf [11] | herbicidal effect (index), Barnyardgrass [8] | herbicidal effect (index), Green Foxtail [9] | herbicidal effect (index), Slender Amaranth [10] | herbicidal effect (index), Velvetleaf [11]
CCOCCn1c(C(F)(F)F)ccc(C(=O)C2=C(O)C3CCC(C3)C2=O)c1=O (centres unmarked) [III-20] | 5 (90% or more of herbicidal effect and crop phytotoxicity) | 5 (90% or more of herbicidal effect and crop phytotoxicity) | 5 (90% or more of herbicidal effect and crop phytotoxicity) | 5 (90% or more of herbicidal effect and crop phytotoxicity) | 5 (90% or more of herbicidal effect and crop phytotoxicity) | 5 (90% or more of herbicidal effect and crop phytotoxicity) | 5 (90% or more of herbicidal effect and crop phytotoxicity) | 5 (90% or more of herbicidal effect and crop phytotoxicity) | 5 (90% or more of herbicidal effect and crop phytotoxicity) | 5 (90% or more of herbicidal effect and crop phytotoxicity) | 5 (90% or more of herbicidal effect and crop phytotoxicity) | – | – | – | –
N#CCCn1c(C(F)(F)F)ccc(C(=O)C2=C(O)CCCC2=O)c1=O [I-44] | 5 (90% or more of herbicidal effect and crop phytotoxicity) | 5 (90% or more of herbicidal effect and crop phytotoxicity) | 5 (90% or more of herbicidal effect and crop phytotoxicity) | 5 (90% or more of herbicidal effect and crop phytotoxicity) | 5 (90% or more of herbicidal effect and crop phytotoxicity) | 5 (90% or more of herbicidal effect and crop phytotoxicity) | 5 (90% or more of herbicidal effect and crop phytotoxicity) | – | – | – | – | 5 (90% or more of herbicidal effect and crop phytotoxicity) | 5 (90% or more of herbicidal effect and crop phytotoxicity) | 5 (90% or more of herbicidal effect and crop phytotoxicity) | 5 (90% or more of herbicidal effect and crop phytotoxicity)
COCCNn1c(C(F)(F)F)ccc(C(=O)C2=C(O)CCCC2=O)c1=O [I-169] | 5 (90% or more of herbicidal effect and crop phytotoxicity) | 5 (90% or more of herbicidal effect and crop phytotoxicity) | 5 (90% or more of herbicidal effect and crop phytotoxicity) | 5 (90% or more of herbicidal effect and crop phytotoxicity) | 5 (90% or more of herbicidal effect and crop phytotoxicity) | 5 (90% or more of herbicidal effect and crop phytotoxicity) | 5 (90% or more of herbicidal effect and crop phytotoxicity) | 5 (90% or more of herbicidal effect and crop phytotoxicity) | 5 (90% or more of herbicidal effect and crop phytotoxicity) | 5 (90% or more of herbicidal effect and crop phytotoxicity) | 5 (90% or more of herbicidal effect and crop phytotoxicity) | – | – | – | –
Cc1ccc(-n2c(C(F)(F)F)ccc(C(=O)C3=C(O)CCCC3=O)c2=O)cc1 [I-89] | 5 (90% or more of herbicidal effect and crop phytotoxicity) | 5 (90% or more of herbicidal effect and crop phytotoxicity) | 5 (90% or more of herbicidal effect and crop phytotoxicity) | 5 (90% or more of herbicidal effect and crop phytotoxicity) | 5 (90% or more of herbicidal effect and crop phytotoxicity) | 5 (90% or more of herbicidal effect and crop phytotoxicity) | 5 (90% or more of herbicidal effect and crop phytotoxicity) | – | – | – | – | 5 (90% or more of herbicidal effect and crop phytotoxicity) | 5 (90% or more of herbicidal effect and crop phytotoxicity) | 5 (90% or more of herbicidal effect and crop phytotoxicity) | 5 (90% or more of herbicidal effect and crop phytotoxicity)
CCCNn1c(C(F)(F)F)ccc(C(=O)c2cnn(C)c2O)c1=O [IV-148] | 5 (90% or more of herbicidal effect and crop phytotoxicity) | 5 (90% or more of herbicidal effect and crop phytotoxicity) | 5 (90% or more of herbicidal effect and crop phytotoxicity) | 5 (90% or more of herbicidal effect and crop phytotoxicity) | 5 (90% or more of herbicidal effect and crop phytotoxicity) | 5 (90% or more of herbicidal effect and crop phytotoxicity) | 5 (90% or more of herbicidal effect and crop phytotoxicity) | 5 (90% or more of herbicidal effect and crop phytotoxicity) | 5 (90% or more of herbicidal effect and crop phytotoxicity) | 5 (90% or more of herbicidal effect and crop phytotoxicity) | 5 (90% or more of herbicidal effect and crop phytotoxicity) | – | – | – | –
Nn1c(C(F)(F)F)ccc(C(=O)C2=C(O)CCCC2=O)c1=O [I-156] | 5 (90% or more of herbicidal effect and crop phytotoxicity) | 4 (70 to less than 90% of herbicidal effect and crop phytotoxicity) | 5 (90% or more of herbicidal effect and crop phytotoxicity) | 5 (90% or more of herbicidal effect and crop phytotoxicity) | 5 (90% or more of herbicidal effect and crop phytotoxicity) | 5 (90% or more of herbicidal effect and crop phytotoxicity) | 5 (90% or more of herbicidal effect and crop phytotoxicity) | 5 (90% or more of herbicidal effect and crop phytotoxicity) | 4 (70 to less than 90% of herbicidal effect and crop phytotoxicity) | 5 (90% or more of herbicidal effect and crop phytotoxicity) | 5 (90% or more of herbicidal effect and crop phytotoxicity) | – | – | – | –
CCCCCCCC(=O)Oc1c(C(=O)c2ccc(C(F)(F)F)n(CC3CCCO3)c2=O)cnn1C (centres unmarked) [IV-130] | 4 (70 to less than 90% of herbicidal effect and crop phytotoxicity) | 4 (70 to less than 90% of herbicidal effect and crop phytotoxicity) | 5 (90% or more of herbicidal effect and crop phytotoxicity) | 5 (90% or more of herbicidal effect and crop phytotoxicity) | 5 (90% or more of herbicidal effect and crop phytotoxicity) | 5 (90% or more of herbicidal effect and crop phytotoxicity) | 5 (90% or more of herbicidal effect and crop phytotoxicity) | 5 (90% or more of herbicidal effect and crop phytotoxicity) | 4 (70 to less than 90% of herbicidal effect and crop phytotoxicity) | 5 (90% or more of herbicidal effect and crop phytotoxicity) | 4 (70 to less than 90% of herbicidal effect and crop phytotoxicity) | – | – | – | –
